Results on five compounds are retold here after patent US20220056014A1, “PHENYLPYRROLIDINE COMPOUND AND USE THEREOF” (WUHAN HUMANWELL INNOVATIVE DRUG RESEARCH AND DEVELOPMENT …, priority 2018, published 2022).

In one series the target is T1, PDE4D (Homo sapiens, UniProt Q08499).
T1 construct: purchased Enzo Life Sciences BML-SE523-0020
Put plainly: PDE4D enzyme activity assay (PDE-Glo Phosphodiesterase Assay Kit). Format: biochemical. The method, then: (§1) For the previously synthesized compounds, the inhibitory activity of the compounds against PDE4B and against PDE4D was tested by using PDE-Glo Phosphodiesterase Assay Kit (promega, V1361). In short, in accordance with the instructions of the kit, a concentrated stock solution (10 mM) the compound to be tested was first prepared with DMSO solvent, and the concentrated stock solution was then diluted into 10× working solutions with a Reaction buffer provided in the kit. With the Reaction buffer, on ice, PDE4B enzyme (Enzo Life Sciences, BML-SE522-0020) was diluted to a concentration of 1 ng/μl to obtain a PDE4B enzyme working solution, and PDE4D enzyme (Enzo Life Sciences, BML-SE523-0020) was diluted to a concentration of 4 ng/μl to obtain a PDE4D enzyme working solution. 1.5 μl of the PDE4B working solution (or PDE4D working solution) and 1 μl of the compound working solution were added to wells of 384-well plate (Corning, CLS3707), and incubated with shaking at room temperature for 5 min, followed by adding 2.5 μl of cAMP (in Reaction buffer, 2 μM) per well, incubating with shaking at room temperature for 20 min. 2.5 μl/well of 1× Termination Buffer, and then 2.5 μl/well of 1× Detection Buffer were added, and further incubated with shaking at room temperature for 20 min. 10 μl/well of 1× Kinase-Glo was added, and the plate was incubated with shaking at room temperature for 10 min, and bioluminescence was measured with PheraStar instrument. The experimental results were plotted with GraphPad Prism software, and fitted to calculate IC50 of each compound.

The next series addresses T2, PDE4B (Homo sapiens, UniProt Q07343).
T2 construct: purchased Enzo Life Sciences BML-SE522-0020
Put plainly: PDE4B enzyme activity assay (PDE-Glo Phosphodiesterase Assay Kit). Format: biochemical. As to conditions: for IC50 (PDE4D)/IC50 (PDE4B): selectivity ratio. The method, then: as §1

The subject of series [1] is LPS-stimulated TNF-α release. Kind of series: LPS-stimulated TNF-α release in mice. The format is in vivo, Balb/c mice. As to conditions: Mus musculus, oral 50 mg/kg (positive control 100 mg/kg), 1 mg/kg LPS i.p. On the procedure:
18 Balb/c mice (6 to 8 weeks) were randomly assigned to a blank group, a model group, and an administration group, 6 mice in each group. A vehicle (blank group, model group) or 50 mg/kg compound (administration group, where the dose for the positive control group was 100 mg/kg) was orally administrated. 30 min after the oral administration, PBS (blank group) or 1 mg/kg LPS (model group and administration group) was injected intraperitoneally. 90 min or 120 min after the intraperitoneal injection, blood was collected from the hearts of the mice, and still stood at 2-8° C. for 4 hours, and centrifuged at 5000 rpm for 10 min to collect the serum. The serum was stored at −80° C. for testing.
The serum TNF-α level was tested using a mouse TNF-α detection kit (Mouse TNFa ELISA kit: Biolegend, Cat: 430904). The inhibitory activity of the compounds against the TNF-α release was calculated based on the serum TNF-α level.
Inhibitory activity of compound %={1−(TNFα concentration of administration group−TNFα concentration of blank group)/(TNFα concentration of model group−TNFα concentration of blank group)}×100%.

The next series can be described thus: Rat pharmacokinetic test. Format: in vivo, SD rats. As to conditions: male, Sprague-Dawley (SD), plasma, oral gavage 10 mg/kg. The method, then:
(§2) In the rat pharmacokinetic test, 3 male SD rats (180-240 g) were fasted overnight, and orally administered with 10 mg/kg of compound to be tested. Blood was collected before the administration, and 15 min, 30 min, 1 h, 2 h, 4 h, 8 h, and 24 h hours after the administration. The blood sample was centrifuged at 8000 rpm for 6 min at 4° C., and the plasma was collected and stored at −20° C. The plasma collected at each time point was added and mixed with 3-5 times the amount of acetonitrile solution containing an internal standard, vortexed for 1 min, centrifuged at 13,000 rpm for 10 min at 4° C. The supernatant was taken and mixed with 3 times the amount of water, and an appropriate amount of the mixture was taken for LC-MS/MS analysis. The main pharmacokinetic parameters were analyzed with WinNonlin 7.0 software non-compartmental model.

Series [2] has as its system LPS-induced secretion of TNFα in human PBMCs. Put plainly: LPS-induced secretion of TNFα in human PBMCs. The format is cell-based. The following applies: Homo sapiens, PBMC, 24 h, LPS 10 ng/ml. On the procedure:
Extraction process of peripheral blood mononuclear cells (PBMCs): one unit of human peripheral blood concentrate (concentrated from 200 cc peripheral blood) was sucked and added with 0.9% saline until a total volume reached 120 ml, and mixed homogenously. 15 ml Lymphoprep™ was added into 50 ml centrifuge tube, and then 30 ml of diluted blood concentrate was carefully and slowly added thereto, allowing the diluted blood to be stacked on the layered solution and preventing the diluted blood from being mixed into the separated solutions or breaking the surface of the separated solution, wherein a ratio of Lymphoprep™ to the diluted blood was 1:2. The centrifuge tubes were balanced and placed in a horizontal centrifuge (eppendorf, 5810R), and centrifuged at 800 g and 20° C. for 20 min. The centrifuge tubes were carefully taken out. PBMCs were absorbed by directly inserting the Pasteur pipette deep into the buffy coat. The obtained PBMCs were gently pipetted with 3 times the volume of 0.9% normal saline or PBS (without calcium or magnesium ions) to mix homogenously. After that, the cells were centrifuged at 250 g and 20° C. for 10 min, the supernatant was removed to remove the platelets remaining in the cell suspension. The obtained cell pellet was resuspended in 20 ml of PBS, and counted using trypan blue.
Compound screening by using PBMCs: the PBMC suspension obtained above was centrifuged to remove PBS, then resuspended in complete medium (RPMI1640+10% FBS+1% P/S) and counted. 100 μL/well of the cells was seeded at 5×10^4/well. Each of the compounds to be screened was prepared as 4 times the final concentration, which was added to the cells at 50 μL/well. The compound was pre-incubated for 30 min in advance of being added to the cells. Meanwhile, control wells to which the compound was not added were provided. A final stimulation concentration of LPS was 10 ng/ml, and LPS was formulated as 4 times the final stimulation concentration, and added to the cells at 50 μL/well. Meanwhile, control wells, i.e., wells without LPS were provided. The cells were incubated for 24 h, and 10% of the supernatant was collected for detection. The obtained supernatant was detected using Invitrogen's Human TNF-α kit (REF: 88-7346-88).

Series [3] in a line: Mouse pharmacokinetic test. The format is in vivo, CD-1 mice. The following applies: male, CD-1, plasma, oral gavage 10 mg/kg. The method, then:
as §2
(§3) In the mouse pharmacokinetic test, 9 male CD-1 mice (20-25 g) were fasted overnight, and orally administered with 10 mg/kg of the compound to be tested. Bloods of 3 mice were collected at each time point, and bloods of 9 mice were alternately collected in total. In the pharmacokinetic test in canine, 3 male beagle dogs (8-10 kg) were fasted overnight, and orally administered with 5 mg/kg of the compound to be test. In the pharmacokinetic test of cynomolgus monkeys, 3 male cynomolgus monkeys (4 to 6.5 kg) were fasted overnight, and orally administered 20 mg/kg of the compound to be test. The remaining processes are the same as those of the rat pharmacokinetic test.

A short description of series [4]: Pharmacokinetic test in canine. Format: in vivo, beagle dogs. The following applies: male, beagle, dog, plasma, oral gavage 5 mg/kg. On the procedure: as §2, §3
Setting [5] is: 1.5 h, blood 90 min after LPS, read-out: Inhibition rate (%) of LPS-stimulated TNF-α release, 90 min.
The mark [6] stands for this setting: 2 h, blood 120 min after LPS, read-out: Inhibition rate (%) of LPS-stimulated TNF-α release, 120 min.

Like-named read-outs stand apart in the source and are kept apart here.

T2 sequence (Q07343 whole entry): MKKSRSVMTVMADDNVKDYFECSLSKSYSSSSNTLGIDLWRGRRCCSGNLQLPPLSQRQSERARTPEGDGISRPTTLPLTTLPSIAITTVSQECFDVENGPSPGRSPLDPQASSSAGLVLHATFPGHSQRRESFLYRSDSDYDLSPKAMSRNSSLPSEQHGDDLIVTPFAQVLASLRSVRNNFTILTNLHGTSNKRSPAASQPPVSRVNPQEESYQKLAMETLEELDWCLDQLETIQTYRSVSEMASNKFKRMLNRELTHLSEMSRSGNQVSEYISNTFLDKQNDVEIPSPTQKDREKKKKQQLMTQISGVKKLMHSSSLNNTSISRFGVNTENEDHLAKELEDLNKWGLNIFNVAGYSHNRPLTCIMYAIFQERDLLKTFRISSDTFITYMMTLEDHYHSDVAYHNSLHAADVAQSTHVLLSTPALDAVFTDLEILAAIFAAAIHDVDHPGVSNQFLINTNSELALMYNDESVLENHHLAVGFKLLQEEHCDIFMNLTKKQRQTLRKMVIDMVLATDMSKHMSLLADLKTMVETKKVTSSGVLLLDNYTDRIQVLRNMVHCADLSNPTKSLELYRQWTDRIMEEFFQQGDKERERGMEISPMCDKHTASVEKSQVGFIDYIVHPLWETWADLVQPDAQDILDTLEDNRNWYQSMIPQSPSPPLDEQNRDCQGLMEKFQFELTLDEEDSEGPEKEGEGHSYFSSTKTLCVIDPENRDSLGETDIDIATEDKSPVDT
T1 sequence (Q08499 whole entry): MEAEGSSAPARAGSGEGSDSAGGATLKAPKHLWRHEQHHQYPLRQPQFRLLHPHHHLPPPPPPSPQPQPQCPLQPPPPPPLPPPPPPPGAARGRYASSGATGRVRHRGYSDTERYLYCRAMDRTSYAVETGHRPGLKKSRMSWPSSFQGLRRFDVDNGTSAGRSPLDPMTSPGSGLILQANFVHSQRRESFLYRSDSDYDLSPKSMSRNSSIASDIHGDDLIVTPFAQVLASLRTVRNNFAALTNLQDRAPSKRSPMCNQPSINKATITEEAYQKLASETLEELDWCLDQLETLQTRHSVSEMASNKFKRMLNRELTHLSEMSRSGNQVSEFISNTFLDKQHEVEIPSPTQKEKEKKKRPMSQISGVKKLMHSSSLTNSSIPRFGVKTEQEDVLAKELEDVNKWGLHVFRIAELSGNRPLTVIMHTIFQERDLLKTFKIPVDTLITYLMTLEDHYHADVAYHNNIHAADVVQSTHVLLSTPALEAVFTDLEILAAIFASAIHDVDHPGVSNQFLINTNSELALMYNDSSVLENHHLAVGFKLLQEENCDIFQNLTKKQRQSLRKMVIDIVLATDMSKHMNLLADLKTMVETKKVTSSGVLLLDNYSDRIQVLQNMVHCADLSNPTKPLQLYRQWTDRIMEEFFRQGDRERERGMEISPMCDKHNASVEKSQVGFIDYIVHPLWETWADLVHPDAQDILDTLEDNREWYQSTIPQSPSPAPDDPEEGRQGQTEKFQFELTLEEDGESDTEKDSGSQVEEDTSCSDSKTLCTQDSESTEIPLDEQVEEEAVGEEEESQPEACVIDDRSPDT

Regarding `COc1ccc([C@@H]2CN(C(=O)[C@@H](O)CO)C[C@@]2(C)[C@@H](C)O)cc1OC1CN(c2cc(C#N)c(C)cn2)C1` [Compound 001, 2-(3-(5-((3S,4S)-1-((S)-2,3-dihydroxypropanoyl)-4-((R)-1-hydroxyethyl)-4-methylpyrrolidin-3-yl)-2-methoxyphenoxy)azetidin-1-yl)-5-methylisonicotinonitrile], the IC50 at PDE4D was 0.67 nM; at PDE4B it was 0.91 nM; in series [2] it was 0.36 nM. Also, the “IC50 (PDE4D)/IC50 (PDE4B)” value on PDE4B is listed as 0.74. In addition, the inhibition in vivo at 50 mg/kg in series [1] (setting [5]) was determined as 53.6%; in series [1] (setting [6]) it was 39.5%. Moreover, the values for the AUC(0-t) (in “Rat pharmacokinetic test”; in series [3]) were 23.5 ng·h/mL and 311 ng·h/mL, respectively. Further, the maximum concentration (Cmax) was found to be 22.5 ng/mL in “Rat pharmacokinetic test” and 339 ng/mL in series [3]. Further, the Tmax amounted to 19.8 min in the series “Rat pharmacokinetic test” and 15 min in series [3].
With `COc1ccc([C@@H]2CN(C(=O)[C@@H](O)CO)C[C@@]2(C)[C@@H](C)O)cc1OC1CN(c2cc(Cl)c(C)cn2)C1` [Compound 002, (S)-1-((3S,4S)-4-(3-((1-(4-chloro-5-methylpyridin-2-yl)azetidin-3-yl)oxy)-4-methoxyphenyl)-3-((R)-1-hydroxyethyl)-3-methylpyrrolidin-1-yl)-2,3-dihydroxypropan-1-one], the IC50 was 0.16 nM against PDE4D, 0.43 nM against PDE4B and 0.56 nM in series [2]. The figures for the AUC(0-t) (in series [4]; in “Rat pharmacokinetic test”; in series [3]) were 534 ng·h/mL, 103 ng·h/mL and 386 ng·h/mL, respectively. Moreover, the Cmax was 198 ng/mL in series [4], 41.6 ng/mL in “Rat pharmacokinetic test” and 355 ng/mL in series [3]. Besides, the Tmax in series [4] is 60 min; in “Rat pharmacokinetic test”, 19.8 min; in series [3], 15 min. For the same compound, the “IC50 (PDE4D)/IC50 (PDE4B)” value on PDE4B is on record as 0.37. In addition, the inhibition in vivo at 50 mg/kg in series [1] (setting [6]) turned out to be 66.2%.
With `COc1ccc([C@@H]2CN(C(=O)[C@@H](O)CO)C[C@@]2(C)[C@@H](C)O)cc1OC1CN(c2cc(C)c(C)cn2)C1` [Compound 008, (S)-1-((3S,4S)-4-(3-((1-(4,5-dimethylpyridin-2-yl)azetidin-3-yl)oxy)-4-methoxyphenyl)-3-((R)-1-hydroxyethyl)-3-methylpyrrolidin-1-yl)-2,3-dihydroxypropan-1-one], the values for the IC50 (against PDE4D; on PDE4B; in series [2]) were 3.58 nM, 1.46 nM and 1.81 nM, respectively. Moreover, the AUC(0-t) in series [4] is 1760 ng·h/mL; in “Rat pharmacokinetic test” it was 443 ng·h/mL; in series [3], 625 ng·h/mL. In addition, the Cmax in series [4] turned out to be 534 ng/mL; in “Rat pharmacokinetic test”, 133 ng/mL; in series [3] it was 298 ng/mL. Also, the figures for the time to peak (Tmax) (in series [4]; in “Rat pharmacokinetic test”; in series [3]) were 30 min, 15 min and 30 min, respectively. At PDE4B, the “IC50 (PDE4D)/IC50 (PDE4B)” value was determined as 2.45. Besides, the inhibition in vivo at 50 mg/kg in series [1] (setting [6]) was found to be 63%.
At PDE4D, `CCOc1ccc(N2CC(Oc3cc([C@@H]4CN(C(=O)[C@@H](O)CO)C[C@@]4(C)[C@@H](C)O)ccc3OC)C2)nc1` [Compound 022, (S)-1-((3S,4S)-4-(3-((1-(5-ethoxypyridin-2-yl)azetidin-3-yl)oxy)-4-methoxyphenyl)-3-((R)-1-hydroxyethyl)-3-methylpyrrolidin-1-yl)-2,3-dihydroxypropan-1-one] displayed an IC50 of 1.18 nM. Moreover, at PDE4B, inhibition was half-maximal at 0.75 nM (IC50) and the “IC50 (PDE4D)/IC50 (PDE4B)” value worked out at 1.57. In addition, the inhibition in vivo at 50 mg/kg in series [1] (setting [5]) was 60.7%. Moreover, in “Rat pharmacokinetic test”, the AUC(0-t) is 410 ng·h/mL, the Cmax worked out at 221 ng/mL and the Tmax worked out at 19.8 min. The same compound gave an IC50 in series [2] of 1.01 nM. In series [3], the AUC(0-t) was found to be 215 ng·h/mL, the highest level (Cmax) was 186 ng/mL and the Tmax was found to be 15 min.
Regarding `COc1ccc([C@@H]2CN(C(=O)[C@@H](O)CO)C[C@@]2(C)[C@@H](C)O)cc1OC1CN(c2ccc(C3CC3)cn2)C1` [Compound 034, (S)-1-((3S,4S)-4-(3-((1-(5-cyclopropylpyridin-2-yl)azetidin-3-yl)oxy)-4-methoxyphenyl)-3-((R)-1-hydroxyethyl)-3-methylpyrrolidin-1-yl)-2,3-dihydroxypropan-1-one], the IC50 was determined as 2.96 nM at PDE4D, 0.25 nM on PDE4B and 0.32 nM in series [2]. For the same compound, at PDE4B, the “IC50 (PDE4D)/IC50 (PDE4B)” value amounted to 11.8. The inhibition in vivo at 50 mg/kg in series [1] (setting [5]) stood at 76.4%; in series [1] (setting [6]), 85.6%.

The IC50 is the concentration needed to halve the response being measured. A high value points to lower potency. A word on the AUC(0-t): it is the area under the concentration-time curve up to a stated or last time point. A low value points to low exposure. Broadly, the Cmax is the highest concentration seen after dosing. What is called Tmax is the time from dosing to the highest level.
